Test results from patent publication US20110092456A1, “Methods of increasing cAMP levels and uses thereof” (priority 2009, published 2011).
Entries after “also recorded” stand apart in the source; their conditions may differ. Like-named read-outs stand apart in the source and are kept apart here.

Tests used:
eNOS [1] = assay: Western blot of myocardial eNOS; type: in vivo, rat; conditions: rats, 3-day oral pretreatment, immunoblot, result in words
Method: (§1) Adenosine 5' triphosphate [γ32P] […] The supernatant was collected and the total protein concentration was determined using Lowry Protein Assay. The protein samples were subjected to SDS-PAGE with 4-20% gradient polyacrylamide gel and transferred to pure nitrocellulose membrane (0.45 μm) (Bio-Rad). After blocking with 5% skim milk in Tris-buffered saline, the membrane was incubated overnight at 4° C. with primary antibodies against eNOS, Akt, […]-eNOS, […]-eNOS, […]-Akt, and PTEN, and secondarily with HRP-conjugated anti-mouse or anti-rabbit antibodies. The immunoblots were developed using ECL western Blotting Detection Reagent (Amersham). The protein signals were pictured by an image-scanner and analyzed using Image J software (National Institutes of health, USA). The strength of each signal was normalized to the corresponding β-actin stain signal. Data are expressed as a ratio between the protein and the corresponding β-actin signal density.

Akt [2] = conditions: rat; oral 30 mg/kg after 2 hours of middle cerebral artery occlusion; cited from earlier work
[3] = system: rat model of myocardial ischemia-reperfusion injury; assay: Rat myocardial ischemia-reperfusion infarct size protocol; type: in vivo; conditions: rats; for infarct size (as a percentage of the AR): FIG. 1, 3-day oral pretreatment; for infarct size: 3-day oral pretreatment (atorvastatin 2 mg/kg/d, cilostazol 20 mg/kg/d)
Method: Adenosine 5′ triphosphate [γ32P]
Hearts were excised and the left ventricle was sliced transversely into 6 sections. Slices were weighed and incubated for 15 minutes at 37° C. in 1% buffered (pH=7.4) 2,3,5-triphenyl-tetrazolium-chloride (TTC), fixed in a 10% formaldehyde and photographed in order to identify the AR (uncolored by the blue dye), the infarct size (unstained by TTC), and the non-ischemic zones (colored by blue dye). The area of AR and infarct size in each slice were determined by planimetry, converted into percentages of the whole for each slice, and multiplied by the weight of the slice and the results summed to obtain the weight of the myocardial AR and infarct size.

[4] = system: middle cerebral artery occlusion; conditions: rat, cited from earlier work
PTEN = assay: Western blot of myocardial PTEN; type: in vivo, rat; conditions: rats, 3-day oral pretreatment, immunoblot, result in words
Method: as §1

myocardial adenosine = assay: Myocardial adenosine levels (HPLC); type: in vivo, rat; conditions: rats; 3-day oral pretreatment; result in words
Method: Adenosine 5′ triphosphate [γ32P] […] Adenosine was analyzed by high performance liquid chromatography (HPLC) according to the procedure of Wojcik and Neff {Wojcik, 1982 #325}. […] The protein concentration was determined by Lowry assay. Ten volumes of 0.25 M Ba(OH)2 was added and the samples were centrifuged at 30,000×g for 10 minutes. The supernatants were then transferred to a conical tube and 5 μl of chloroacetaldehyde added to 20 μl of supernatant. The tubes were capped, mixed and submerged in a boiling water bath for 10 min. The samples were analyzed by HPLC using a Waters C18 reversed phase 150 mm×4.6 mm column. […] The excitation monochromator was set to a wavelength of 270 nm and the cutoff wavelength of the emission filter was 389 nm.

[5] = 41 patients; cilostazol 200 mg/d versus aspirin 250 mg/d; cited from earlier work
[6] = cited from earlier work
myocardial infarct size [7] = conditions: rabbit; intravenous 1 mg/kg/min for 5 min before myocardial ischemia; cited from earlier work
[8] = system: permanent middle cerebral artery occlusion; conditions: mouse; 30 mg/kg intraperitoneally three times (12 h before, 1 h before, just after ischemia); cited from earlier work
Akt [9] = assay: Western blot of myocardial Akt; type: in vivo, rat; conditions: rats, 3-day oral pretreatment, immunoblot, result in words
Method: as §1

[10] = system: cAMP-dependent protein kinase (PKA); assay: Myocardial protein kinase A (PKA) activity, rat; type: in vivo; conditions: rats; 3-day oral pretreatment; myocardial samples; result in words
eNOS [11] = conditions: atorvastatin 3-day pretreatment, 1 mg/kg/d; cited from earlier work
myocardial infarct size [12] = conditions: 3-day pretreatment, cited from earlier work
calcium dependent NOS = conditions: atorvastatin 3-day pretreatment, 1 mg/kg/d; cited from earlier work
[13] = rat; 16 hours after the third dose, 10 mg/kg/d; cited from earlier work
[14] = 30 min ischemia, 4 h reperfusion, mean±SEM

**Q.** Which “myocardial levels of Ser-633 P-eNOS” value (eNOS [1]) does the source give for O=C1CCc2cc(OCCCCc3nnnn3C3CCCCC3)ccc2N1 [cilostazol] here?
**A.** augmented myocardial levels

**Q.** And the “myocardial levels of Ser-1177 P-eNOS” value (eNOS [1])?
**A.** augmented myocardial levels

**Q.** What about the “myocardial total eNOS levels” value (eNOS [1]) of the same compound?
**A.** did not affect

**Q.** What about the “myocardial levels of Ser-633 P-eNOS” value (eNOS [1]; listed as CIL) of the same compound?
**A.** significantly increased

**Q.** And the “myocardial levels of Ser-1177 P-eNOS” value (eNOS [1]; listed as CIL)?
**A.** significantly increased

**Q.** And the Akt phosphorylation (Akt [2])?
**A.** augmented Akt phosphorylation

**Q.** What about the “infarct size (as a percentage of the AR)” value ([3]; result in words) of the same compound?
**A.** significantly smaller than in the control group

**Q.** What about the infarct size [3, 14] of the same compound?
**A.** 56 ± 4 mg

**Q.** What about the infarct size ([3]; result in words) of the same compound?
**A.** reduced infarct size; also recorded: significant reduction in infarct size

**Q.** What about the brain infarct size ([4]; 2 h occlusion, 24 h reperfusion, oral cilostazol 30 mg/kg, aspirin 300 mg/kg, clopidogrel 30 mg/kg) of the same compound?
**A.** reduced brain infarct size

**Q.** And the brain infarct size ([4]; oral 30 mg/kg at 5 min and 4 h after completion of 2 hours of middle cerebral artery occlusion)?
**A.** reduces brain infarct size

**Q.** What about the “myocardial PTEN levels” value (PTEN) of the same compound?
**A.** significantly reduce PTEN levels

**Q.** And the “myocardial PTEN levels” value (PTEN; listed as CIL)?
**A.** significantly decreased

**Q.** And the myocardial adenosine levels (myocardial adenosine)?
**A.** small increase in myocardial adenosine levels

**Q.** And the 6-month angiographic outcomes [5]?
**A.** better 6-month angiographic outcomes than aspirin

**Q.** And the “minimal lumen diameter at follow-up” value [5]?
**A.** larger

**Q.** And the percent diameter stenosis [5]?
**A.** smaller

**Q.** What about the “plaque area (intravascular ultrasound)” value [5] of the same compound?
**A.** smaller

**Q.** And the 6-month restenosis rate ([6]; 50 patients, primary stenting for ST elevation acute myocardial infarction, cilostazol 100 mg BID versus aspirin alone)?
**A.** 0%

**Q.** What about the in-stent stenosis ([6]; 70 patients, Palmaz-Schatz stenting, cilostazol 200 mg/d, aspirin 81 mg/d) of the same compound?
**A.** 8.6%

**Q.** And the “6-month restenosis after successful coronary stenting” value ([6]; CREST, cilostazol 100 mg bid, all patients on clopidogrel 30 days and aspirin 6 months)?
**A.** 22.0%

**Q.** What about the “9-month target lesion revascularization rate per patient” value ([6]; RACTS trial, cilostazol 100 mg bid 6 months, ticlopidine 250 mg bid 1 month) of the same compound?
**A.** 22.9%

**Q.** What about the “effect of preconditioning by 2 min of ischemia” value (myocardial infarct size [7]) of the same compound?
**A.** potentiates the effect of preconditioning

**Q.** And the myocardial infarct size (myocardial infarct size [7])?
**A.** does not affect myocardial infarct size

**Q.** What about the “brain infarct size measured at 24 h” value [8] of the same compound?
**A.** reduced brain infarct size

**Q.** What about the “myocardial levels of Ser-473 P-Akt” value (Akt [9]) of the same compound?
**A.** augmented myocardial levels

**Q.** And the “myocardial total Akt levels” value (Akt [9])?
**A.** did not affect

**Q.** And the “myocardial levels of Ser-473 P-Akt” value (Akt [9]; listed as CIL)?
**A.** significantly increased

**Q.** What about the “cAMP-dependent protein kinase (PKA) activity” value [10] of the same compound?
**A.** significantly increased

**Q.** Which results are given for CC(C)c1c(C(=O)Nc2ccccc2)c(-c2ccccc2)c(-c2ccc(F)cc2)n1CC[C@@H](O)C[C@@H](O)CC(=O)O [atorvastatin]?
**A.** myocardial levels of Ser-1177 P-eNOS (eNOS [1]): but not on Ser-1177 P-eNOS and Ser-633 P-eNOS levels; also recorded: did not increase; myocardial total eNOS levels (eNOS [1]): did not affect; infarct size (as a percentage of the AR) ([3]; result in words): did not affect infarct size; infarct size [3, 14]: 128 ± 8 mg; infarct size ([3]; result in words): did not affect infarct size; myocardial PTEN levels (PTEN): no effect; myocardial adenosine levels (myocardial adenosine): small increase in myocardial adenosine levels; myocardial levels of P-eNOS (eNOS [11]): did not affect; infarct size (myocardial infarct size [12]; 1 mg/kg/d): did not limit infarct size; infarct size (myocardial infarct size [12]; oral, 2 mg/kg/d): does not affect infarct size; infarct size (myocardial infarct size [12]; oral, 10 and 75 mg/kg/d): reduces infarct size; calcium dependent NOS activity (calcium dependent NOS): did not affect; blood levels of atorvastatin [13]: comparable to those seen in humans treated with atorvastatin 80 mg/d; myocardial levels of Ser-473 P-Akt (Akt [9]): small, statistically significant effect; myocardial total Akt levels (Akt [9]): did not affect
